Reference: patent US20240415845A1, “Compositions of Iboga Alkaloids and Methods of Treatment” (priority 2022, published 2024)

System: special operations veterans with combat and/or blast exposure
Test: Montgomery-Asberg Depression Rating Scale (MADRS), incl. suicidal ideation item Q10
Assay type: in vivo, human
Conditions: for Suicidal Ideation (MADRS Q10), % Reporting: only participants with non-zero suicidal ideation at baseline (N 14), baseline 100%
Excerpt: The pre-specified primary outcome was change in the World Health Organization Disability Assessment Schedule 2.0 (WHODAS) (Gold L. H. et al., J. Am. Acad. Psychiatry Law 42, 9 (2014)) from baseline to post-treatment, with change from baseline to the one-month follow-up a secondary outcome. Additional pre-specified secondary outcomes included post-treatment changes on the Clinician Administered PTSD Scale (CAPS-5; Weathers, F. W. et al., Psychol. Assess., 30, 383-395 (2018)), Montgomery-Åsberg Depression Rating Scale (MADRS; Montgomery, S. A., Br. J. Psychiatry J. Ment. Sci., 134, 382-389 (1979)) and the Hamilton-Anxiety Rating Scale (HAM-A; Bruss, G. S., et al., Psychiatry Res., 53, 191-202 (1994)). […] An additional dose of magnesium was administered approximately 12 hours later. To assess the significance of post-treatment changes, linear mixed effects (LME) models were used for each outcome measure. False Discovery Rate (FDR; Benjamini, Y. et al., J. R. Stat. Soc. Ser. B Methodol., 57, 289-300 (1995)) was applied to correct for multiple comparisons.
To further assess changes in comorbid psychiatric symptoms identified by the models, mean percent reduction, response rate, and remission rate according to the CAPS-5, MADRS and HAM-A (Table 1) were calculated. Response on the CAPS-5, MADRS, and HAM-A was defined as a reduction of at least 10 points (Mitchell, J. M. et al., Nat. Med. 27, 1025-1033(2021)), 50% (Leucht, S. et al., J. Affect. Disord. 210, 287-293 (2017)), and 50% (McIntyre, A. et al., Depress. Anxiety 24, 487-494 (2007)), respectively; remission as loss of diagnosis and a total score below 12 (Mitchell, J. M. et al. supra), <8 (Leucht, S. et al. supra), and <8(McIntyre, A. et al., supra), respectively.
With subjects in the fasting state, an intravenous infusion of 1 gram of magnesium sulfate was administered 1-2 hours prior to treatment. […] Medical staff (MD, RN, or EMT) were onsite at a ratio of at least 1 staff per 2 patients throughout treatment for monitoring and management, but no specific coaching or psychological support was provided during treatment.
Clinician administered scales included CAPS-5 (Clinician-administered PTSD Scale for DSM-5), which is a gold standard assessment of PTSD symptom severity; MADRS (Montgomery-Asberg Depression Rating Scale), a measure for depressive symptom severity: and Hamilton-Anxiety Rating Scale (HAM-A) (Shear, M. K. et al., Depress. Anxiety 13, 166-178 (2001)) a measure for anxiety symptom severity: SCID-5 (Structured Clinical Interview for DSM-5) Overview for a historical and environmental context of symptom presentation: MINI DSM-5 (Mini International Neuropsychiatric Interview from DSM-5) for a structured psychodiagnostics assessment: BAT-L (Boston Assessment of TBI-Lifetime) for a lifetime history of TBI and blast exposure: and Ohio State University TBI Identification Method (Short Form) for a lifetime history of TBI. MADRS testing provides an indication of depressive symptoms, CAPS-5 provides an indication of PTSD and SIGH-A provides an indication of anxiety. Collectively these overlap to provide indication of mood, concentration, sleep and tension.
The MADRS is a clinician-administered 10-item scale assessing the severity of depression symptoms. Items are rated on a scale of 0 (no abnormality) to 6 (severe) (Montgomery, S. A. et al., Br. J. Psychiatry J. Ment. Sci. 134, 382-389 (1979)). A total score of 0-6 indicates no depression, 7-19 mild depression, 20-34 moderate depression, 35-59 severe depression, and 60+ very severe depressive symptoms (Müller, M. J., J. Affect. Disord. 77, 255-260 (2003)).

[1] = 1-mo. post, only participants meeting relevant MINI diagnostic criteria
[2] = 1-mo. post, only participants with mild TBI
[3] = 1-wk. post, only participants meeting relevant MINI diagnostic criteria
[4] = 1-wk. post, only participants with mild TBI

With `CCC1CC2CC3c4[nH]c5ccc(OC)cc5c4CCN(C2)C13` (stereo not drawn) [ibogaine, Ibogaine] the “MADRS % Reduction vs Baseline” value [1] was 81% ± 21%, the “MADRS Remission Rate” value [1] was 67% and the “MADRS Response Rate” value [1] was 93%. The MADRS score (1-mo. post, only participants meeting relevant MINI diagnostic criteria at baseline (N 15), baseline 31.3 ± 6.5) was 6.4, the “MADRS % Reduction vs Baseline” value [2] was 87% ± 17% and the “MADRS Remission Rate” value [2] was 85%. For the same compound, the “MADRS Response Rate” value [2] was 96%, the MADRS score (1-mo. post, only participants with mild TBI (N 28), baseline 25.2 ± 8.7) was 3.6 and the “Suicidal Ideation (MADRS Q10), % Reporting” value (1-mo. post) was 14%. The MADRS score (1-wk post, only participants meeting relevant MINI diagnostic criteria at baseline (N 15), baseline 31.3 ± 6.5) was 3.6, the “Suicidal Ideation (MADRS Q10), % Reporting” value (1-wk post) was 0% and the “MADRS % Reduction vs Baseline” value [3] was 89% ± 11%. The “MADRS Remission Rate” value [3] was 73%, the “MADRS Response Rate” value [3] was 100% and the “MADRS % Reduction vs Baseline” value [4] was 87% ± 24%. For the same compound, the “MADRS Remission Rate” value [4] was 85%, the “MADRS Response Rate” value [4] was 100% and the MADRS score (1-wk. post, only participants with mild TBI (N 28), baseline 25.2 ± 8.7) was 2.7. For the same compound, the “subjects meeting criteria for remission with a MADRS score of less than 7” value (FIG. 4B) was 82%, the “subjects meeting criteria for response, reduction of more than 50% in MADRS symptom severity” value (FIG. 4B) was 96% and the “MADRS, effect size D” value (baseline vs 1-mo. post, only participants meeting relevant MINI diagnostic criteria (N 15)) was 3.15. For the same compound, the “MADRS, effect size D” value (baseline vs 1-mo. post, only participants with mild TBI (N 28)) was 2.70, the “MADRS, effect size D” value (baseline vs 1-wk post, only participants with mild TBI (N 28)) was 2.55 and the “MADRS, effect size D” value (baseline vs 1-wk. post, only participants meeting relevant MINI diagnostic criteria (N 15)) was 4.11. The “MADRS, effect size D” value (baseline vs one-month post, all participants) was 2.80, the “MADRS, effect size D” value (baseline vs one-week post, all participants) was 2.65 and the “MADRS Remission Rate” value (one-month post, 29 participants, remission = score <8) was 83%. For the same compound, the “MADRS Response Rate” value (one-month post, 29 participants, response = reduction of at least 50%) was 97%, the MADRS score (one-month post, all participants, baseline 25.6 ± 8.7, mean ± SD) was 3.8 and the “MADRS % Reduction vs Baseline” value (one-month post, all participants, mean ± SD) was 87% ± 17%. For the same compound, the “MADRS Remission Rate” value (one-week post, 29 participants, remission = score <8) was 83%, the “MADRS Response Rate” value (one-week post, 29 participants, response = reduction of at least 50%) was 100% and the “MADRS % Reduction vs Baseline” value (one-week post, all participants, mean ± SD) was 87% ± 23%.
